# ChEMBL document CHEMBL1857833, “Screening and optimization of specific chemical series against human African Trypanosomiasis (HAT)”
# What was measured:
# [1] = DNDI: Lipophilicity measured in Chromatographic hydrophobicity index (CHI) assay, pH 7.4; format: physicochemical; conditions: buffer
# [2] = DNDI: Cytotoxicity against L929 mouse fibroblasts, 72 hour.; format: toxicity, cell-based; conditions: mouse, L929 mouse fibroblasts
# MDR1 (ABCB1) [3] = target: T1, MDR1 (ABCB1) (Homo sapiens, UniProt P08183); assay: (§1) DNDI: Efflux ratio for permeability from basolateral to apical side to apical to basolateral side of MDCK cells transfected with human MDR1; format: ADME, cell-based, Canis lupus familiaris; conditions: dog, MDCK-MDR1; read-out: Calculated Ratio
# T1 sequence (P08183 whole entry): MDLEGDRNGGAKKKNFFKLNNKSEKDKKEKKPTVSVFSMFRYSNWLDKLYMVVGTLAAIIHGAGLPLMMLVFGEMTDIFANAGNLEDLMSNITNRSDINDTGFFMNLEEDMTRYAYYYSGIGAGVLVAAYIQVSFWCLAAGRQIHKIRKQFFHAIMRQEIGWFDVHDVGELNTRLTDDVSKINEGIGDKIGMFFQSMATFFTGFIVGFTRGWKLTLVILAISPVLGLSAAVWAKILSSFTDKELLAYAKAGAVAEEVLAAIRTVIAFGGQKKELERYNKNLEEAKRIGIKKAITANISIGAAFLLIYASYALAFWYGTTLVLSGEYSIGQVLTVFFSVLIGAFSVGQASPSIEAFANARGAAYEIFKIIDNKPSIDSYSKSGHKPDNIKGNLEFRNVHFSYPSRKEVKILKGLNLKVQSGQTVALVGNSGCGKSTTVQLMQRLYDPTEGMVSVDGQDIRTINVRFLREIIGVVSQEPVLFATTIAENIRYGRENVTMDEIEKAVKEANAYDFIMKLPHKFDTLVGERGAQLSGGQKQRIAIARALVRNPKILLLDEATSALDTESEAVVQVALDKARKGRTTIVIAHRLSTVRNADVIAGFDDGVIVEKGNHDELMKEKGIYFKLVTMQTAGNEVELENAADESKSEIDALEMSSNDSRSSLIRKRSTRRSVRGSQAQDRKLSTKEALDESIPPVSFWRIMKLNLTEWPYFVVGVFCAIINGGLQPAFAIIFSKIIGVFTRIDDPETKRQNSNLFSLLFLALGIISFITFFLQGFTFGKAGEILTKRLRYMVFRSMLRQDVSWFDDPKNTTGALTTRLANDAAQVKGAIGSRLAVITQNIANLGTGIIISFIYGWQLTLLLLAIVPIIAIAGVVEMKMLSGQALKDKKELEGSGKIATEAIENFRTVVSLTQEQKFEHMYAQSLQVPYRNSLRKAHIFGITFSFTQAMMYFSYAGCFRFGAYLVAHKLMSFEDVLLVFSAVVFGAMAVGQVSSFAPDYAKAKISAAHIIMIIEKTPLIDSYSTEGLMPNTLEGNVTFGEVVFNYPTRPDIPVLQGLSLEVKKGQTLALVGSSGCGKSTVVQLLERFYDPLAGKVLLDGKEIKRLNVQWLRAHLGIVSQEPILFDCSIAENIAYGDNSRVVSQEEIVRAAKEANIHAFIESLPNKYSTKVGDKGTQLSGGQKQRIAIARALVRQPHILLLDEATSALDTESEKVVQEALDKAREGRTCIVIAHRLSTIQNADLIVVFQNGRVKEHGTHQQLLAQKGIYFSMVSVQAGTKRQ
# Trypanosoma brucei = assay: DNDI: Inhibition of Human African Trypanosomiasis, SBRI 427, in vitro; format: functional, organism-based; conditions: Trypanosoma brucei, SBRI 427; read-out: IC50
# MDR1 (ABCB1) [4] = target: T1, MDR1 (ABCB1); assay: DNDI: % of compound recovered from apical to basolateral permeability assay in MDCK cells transfected with human MDR1 after 60 mins at a concentration of 3uM; format: ADME, cell-based, Canis lupus familiaris; conditions: dog
# [5] = DNDI: Solubility in phosphate buffered saline at pH7.4 measured by nephelometry at room temperature (NEPH-RT); format: physicochemical; conditions: pH 7.4
# MDR1 (ABCB1) [6] = target: T1, MDR1 (ABCB1); assay: DNDI: % of compound recovered from apical to basolateral permeability assay in MDCK cells transfected with human MDR1 after 60 mins at a concentration of 3uM in the presence of GF120918; format: ADME, cell-based, Canis lupus familiaris; conditions: dog, MDCK-MDR1, with GF120918 (concentration not stated)
# [7] = DNDI: half-life in mouse S9 microsomes at a concentration of 1uM; format: ADME, subcellular, Liver, S9 fraction
# MDR1 (ABCB1) [8] = target: T1, MDR1 (ABCB1); assay: DNDI: % of compound recovered from membrane of apical to basolateral permeability assay in MDCK cells transfected with human MDR1 after 60 mins at a concentration of 3uM; format: ADME, cell-based, Canis lupus familiaris; conditions: dog, read-out: Mem Rec
# MDR1 (ABCB1) [9] = target: T1, MDR1 (ABCB1); assay: DNDI: % of compound recovered from membrane of apical to basolateral permeability assay in MDCK cells transfected with human MDR1 after 60 mins at a concentration of 3uM in the presence of GF120918; format: ADME, cell-based, Canis lupus familiaris; conditions: dog, MDCK-MDR1, with GF120918 (concentration not stated); read-out: Mem Rec
# MDR1 (ABCB1) [10] = target: T1, MDR1 (ABCB1); assay: (§2) DNDI: Apparent permeability from apical to basolateral side of the MDCK cell transfected with human MDR1after 60 mins at a concentration of 3uM; format: ADME, cell-based, Canis lupus familiaris; conditions: dog, MDCK-MDR1
# [11] = human, microsomes, 1 µM
# Description: (§3) DNDI: half life in human liver microsomes at a concentration of 1uM
# in vitro [12] = conditions: human, liver microsomes, t (1 / 2)
# Description: as §3
# in vitro [13] = conditions: mouse, liver microsomes
# Description: (§4) DNDI: in vitro intrinsic clearance in mouse liver microsomes at a concentration of 1uM
# in vitro [14] = conditions: human, liver microsomes, CLint in vitro
# Description: (§5) DNDI: in vitro intrinsic clearance in human liver microsomes at a concentration of 1uM
# [15] = mouse, microsomes, 1 µM
# Description: as §4
# in vitro [16] = conditions: mouse, liver microsomes, t (1 / 2)
# Description: DNDI: half life in mouse liver microsomes at a concentration of 1uM
# [17] = DNDI: Cytotoxicity against L929 mouse fibroblasts, CYTO-SP, 24 hour; format: toxicity, cell-based; conditions: mouse, L929 mouse fibroblasts
# [18] = human, microsomes, 1 µM; remark: listed apart in the source
# Description: as §5
# [19] = target: T2, ATP-dependent translocase ABCB1 (Homo sapiens, UniProt P08183); assay: as §1; format: ADME, cell-based, Canis lupus familiaris; conditions: dog, mdck
# T2 sequence (P08183 whole entry): as above
# [20] = target: T2, ATP-dependent translocase ABCB1; assay: DNDI: Apparent permeability from basolateral to apical side of the MDCK cell transfected with human MDR1after 60 mins at a concentration of 3uM; format: ADME, cell-based, Canis lupus familiaris; conditions: dog, 1 h
# MDR1 (ABCB1) [21] = target: T1, MDR1 (ABCB1); assay: DNDI: % of compound recovered from basolateral to apical permeability assay in MDCK cells transfected with human MDR1 after 60 mins at a concentration of 3uM; format: ADME, cell-based, Canis lupus familiaris; conditions: dog
# [22] = target: T2, ATP-dependent translocase ABCB1; assay: as §2; format: ADME, cell-based, Canis lupus familiaris; conditions: dog, mdck, 1 h, 3 µM
smiles,measurement,setting,value
CC(C)(C)c1cc(N2CCNCC2)n2nc(-c3ccc(F)cc3)cc2n1,chromatographic logD,[1],4.15
same,IC50 at 72 h,[2],2.75 µg/mL
same,efflux ratio,MDR1 (ABCB1) [3],0.08
same,IC50,Trypanosoma brucei,1.11 µg/mL
same,"recovery at 1 h, 3 µM",MDR1 (ABCB1) [4],103%
same,solubility kinetic,[5],50 µM
same,"recovery at 1 h, 3 µM",MDR1 (ABCB1) [6],91%
same,half-life at 1 µM,[7],> 350 min
same,"recovery at 1 h, 3 µM",MDR1 (ABCB1) [8],88.4%
same,"recovery at 1 h, 3 µM",MDR1 (ABCB1) [9],76.1%
same,"Papp A→B at 1 h, 3 µM",MDR1 (ABCB1) [10],10.3 ×10⁻⁶ cm/s
COc1ccc(/C(CNC2CCCCC2)=N/O)cc1,t (1 / 2),[11],11 min
same,chromatographic logD,[1],2.93
same,half-life at 1 µM,in vitro [12],13 min
same,microsomal CLint at 1 µM,in vitro [13],235 µL/min/mg
same,IC50,Trypanosoma brucei,4.47 µg/mL
same,solubility kinetic,[5],13 µM
same,microsomal CLint at 1 µM,in vitro [14],66 µL/min/mg
same,CLint in vitro,[15],224 µL/min/mg
same,half-life at 1 µM,in vitro [16],4 min
same,IC50 at 24 h,[17],> 50 µg/mL
same,CLint in vitro,[18],75 µL/min/mg
CN(C)CCNc1nc(Oc2cccc3ccccc23)c2sccc2n1,chromatographic logD,[1],4.85
same,IC50 at 72 h,[2],3.48 µg/mL
same,Calculated Ratio,[19],0.45
same,IC50,Trypanosoma brucei,1.28 µg/mL
same,"recovery at 1 h, 3 µM",MDR1 (ABCB1) [4],77.5%
same,solubility kinetic,[5],100 µM
same,Papp,[20],21.11 ×10⁻⁶ cm/s
same,"recovery at 1 h, 3 µM",MDR1 (ABCB1) [21],110%
same,Papp,[22],11.62 ×10⁻⁶ cm/s
